We go through two compounds from BindingDB's records for doi:10.1074/jbc.M702153200 (University of Bern, 2007).

A word on the EC50: it is the concentration at which the effect is half-maximal. The term Kd denotes the free concentration of one partner at which half of the binding sites on the other are occupied at equilibrium, for simple one-to-one binding.

The target of assay [1] is Gamma-aminobutyric acid receptor subunit alpha-1 (Rattus norvegicus) (UniProt P62813). In words: Activity at rat wild type GABAA alpha-1-beta-2-gamma-2 receptor expressed in xenopus oocytes assessed as GABA-elicited response by two electrode voltage clamp method relative to control. On the technique in general: Two-electrode voltage clamp is typically applied to oocytes expressing channels or transporters.

A short description of assay [2]: Displacement of [3H]Ro15-1788 from rat GABAA alpha-1-beta-2-gamma-2 receptor expressed in HEK293 cells after 1 hr assessed as residual binding by liquid scintillation counting. In general terms: Displacement assays read how much labelled ligand stays bound in the presence of the test substance.

Chain of Gamma-aminobutyric acid receptor subunit alpha-1 (Rattus norvegicus) (P62813 whole entry, looked up): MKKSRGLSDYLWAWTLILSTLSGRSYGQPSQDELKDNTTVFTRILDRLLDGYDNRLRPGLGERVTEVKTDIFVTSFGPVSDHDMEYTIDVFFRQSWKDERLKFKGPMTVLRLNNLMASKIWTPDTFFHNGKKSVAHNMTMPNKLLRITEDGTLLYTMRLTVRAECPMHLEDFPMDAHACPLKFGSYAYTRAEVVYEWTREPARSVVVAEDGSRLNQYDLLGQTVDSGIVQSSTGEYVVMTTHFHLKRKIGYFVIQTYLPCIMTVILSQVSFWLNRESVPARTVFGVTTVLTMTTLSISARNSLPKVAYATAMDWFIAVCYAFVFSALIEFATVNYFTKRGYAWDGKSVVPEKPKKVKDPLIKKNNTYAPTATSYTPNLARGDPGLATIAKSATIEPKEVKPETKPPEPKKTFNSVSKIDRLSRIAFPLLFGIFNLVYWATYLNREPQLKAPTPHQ

In the case of `CCOC(=O)c1ncn2c1CN(C)C(=O)c1cc(N=[N+]=[N-])ccc1-2` [RO-154513], the concentration giving a half-maximal response (EC50) in assay [1] was 1.1 nM. Turning to `CCOC(=O)c1ncn2c1CN(C)C(=O)c1cc(N=C=S)ccc1-2` [8-Isothiocyanato-5-methyl-6-oxo-5,6-dihydro-4H-2,5,10b-triaza-benzo[e]azulene-3-carboxylic acid ethyl ester], the Kd in assay [2] was determined as 878 nM. Besides, the EC50 in assay [1] amounted to 250 nM.
